“Also recorded” adds a separate entry of the source.
Assays:
[1] = system: human colorectal-cancer cells HT-29; test: MTT ex vivo survival assay, HT-29; format: cell-based; settings: HT-29 cell line; for half-maximal inhibitory concentration (IC50): isolated agents, stated in words only
Protocol: (§1) The Antroquinonol B (AnQB) and Zhankuic acid D (ZhAD) separately isolated from the Extraction A of Example 1 were added into the culture media of human colorectal-cancer cells, HT-29 or SW-480, to test for tumor cell survival by using anti-cancer drug screen model. This survival assay was carried out with the widely known MTT (3-[4,5-dimethylthiazol-2-yl]2,5-diphenyltetrazolium bromide) assay.
(§2) HT-29 cell line (purchased from ATCC) is a human colorectal adenocarcinoma cell line with epithelial morphology. These cells are sensitive to the chemotherapeutic drugs 5-fluorouracil and oxaliplatin, which are standard treatment options for colorectal cancer. In addition to being a xenograft tumor model for colorectal cancer, the HT-29 cell line is also used as an in-vitro model to study survival assay. And the other one, SW-480 is Dukes' type B, colorectal adenocarcinoma which is a difficult tumor with a low survival rate.
(§3) The human colorectal-cancer cells, HT-29 and SW-480 were cultivated in media containing fetal calf serum for 18 hours. The proliferated cells were washed once with PBS, then treated with 1× trypsin-EDTA and centrifuged at 1200 rpm for 45 minutes. The supernatant was discarded and the cell pellet was re-suspended in […] of fresh culture medium by gently shaking. The cells were placed in a 96-well plate.
(§4) Subsequently, the plates were read on an ELISA reader to determine the survival rates. The half maximal inhibitory concentration (IC50) values were calculated and results of ex vivo survival assay were thus obtained.
(§5) By using the same manner as the method described above, respectively human colorectal cancer cell line HT-29 and Sw-480 was cultured. After then, the pharmaceutical compositions A˜F of the present invention was applied separately, and then MTT assay for each sample was measured to assess the inhibition effectiveness of various cancer cell activity while using pharmaceutical compositions A˜F of the present invention.

[2] = system: human colorectal-cancer cells SW-480; test: MTT ex vivo survival assay, SW-480; format: cell-based; settings: SW-480 cell line; for half-maximal inhibitory concentration (IC50): isolated agents, stated in words only
Protocol: as §1, §2, §3, §4, §5

SMILES	tumor cell survival rate / growth inhibition (MTT assay) [1]	half-maximal inhibitory concentration (IC50) [1]	tumor cell survival rate / growth inhibition (MTT assay) [2]	half-maximal inhibitory concentration (IC50) [2]
C=C(CC[C@@H](C(=O)O)[C@H]1CC[C@@]2(C)C3=CC[C@H]4C(C)(C)[C@@H](O)CC[C@]4(C)C3=CC[C@]12C)C(C)C	can inhibit the growth of colorectal cancer cell; also recorded: can decrease the survival rates	relatively low	can inhibit the growth of colorectal cancer cell; also recorded: can decrease the survival rates	relatively low
COC1=C(OC)[C@H](O)[C@H](C/C=C(\C)CC/C=C(/C)C/C=C/C(C)(C)O)[C@@H](C)C1=O [Antroquinonol B]	can inhibit the growth of colorectal cancer cell; also recorded: can decrease the survival rates	relatively low	can inhibit the growth of colorectal cancer cell; also recorded: can decrease the survival rates	relatively low

From US20170189417A1, “PHARMACEUTICAL COMPOSITION FOR TREATING COLORECTAL CANCER” (MA SHEN KAI RUEI CO., LTD., priority 2015, published 2017)
